In the test the target is canine TRPM8 (Canis lupus familiaris, UniProt Q1A7N1). Briefly: In Vitro Canine TRPM8 Functional Assay (Ca2+ fluorescence, icilin activation). The following applies: for pIC50: read-out: IC50; for inhibition at 0.2 µM: read-out: % Inh @ 0.2; for inhibition at 0.5 µM: compound at 0.5 μM, read-out: % Inh @ 0.5. Type of test: cell-based. In outline: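 HEK293 cells stably expressing canine TRPM8 loaded with Calcium 3 dye; compound added and Ca2+ fluorescence monitored 5 min before icilin at a final level giving ~80% maximal response, read on FLIPR or FDSS. EC50 or IC50 from eight-point dose-response, quadruplicate wells per point.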
Sequence of canine TRPM8 (Q1A7N1 1-1104): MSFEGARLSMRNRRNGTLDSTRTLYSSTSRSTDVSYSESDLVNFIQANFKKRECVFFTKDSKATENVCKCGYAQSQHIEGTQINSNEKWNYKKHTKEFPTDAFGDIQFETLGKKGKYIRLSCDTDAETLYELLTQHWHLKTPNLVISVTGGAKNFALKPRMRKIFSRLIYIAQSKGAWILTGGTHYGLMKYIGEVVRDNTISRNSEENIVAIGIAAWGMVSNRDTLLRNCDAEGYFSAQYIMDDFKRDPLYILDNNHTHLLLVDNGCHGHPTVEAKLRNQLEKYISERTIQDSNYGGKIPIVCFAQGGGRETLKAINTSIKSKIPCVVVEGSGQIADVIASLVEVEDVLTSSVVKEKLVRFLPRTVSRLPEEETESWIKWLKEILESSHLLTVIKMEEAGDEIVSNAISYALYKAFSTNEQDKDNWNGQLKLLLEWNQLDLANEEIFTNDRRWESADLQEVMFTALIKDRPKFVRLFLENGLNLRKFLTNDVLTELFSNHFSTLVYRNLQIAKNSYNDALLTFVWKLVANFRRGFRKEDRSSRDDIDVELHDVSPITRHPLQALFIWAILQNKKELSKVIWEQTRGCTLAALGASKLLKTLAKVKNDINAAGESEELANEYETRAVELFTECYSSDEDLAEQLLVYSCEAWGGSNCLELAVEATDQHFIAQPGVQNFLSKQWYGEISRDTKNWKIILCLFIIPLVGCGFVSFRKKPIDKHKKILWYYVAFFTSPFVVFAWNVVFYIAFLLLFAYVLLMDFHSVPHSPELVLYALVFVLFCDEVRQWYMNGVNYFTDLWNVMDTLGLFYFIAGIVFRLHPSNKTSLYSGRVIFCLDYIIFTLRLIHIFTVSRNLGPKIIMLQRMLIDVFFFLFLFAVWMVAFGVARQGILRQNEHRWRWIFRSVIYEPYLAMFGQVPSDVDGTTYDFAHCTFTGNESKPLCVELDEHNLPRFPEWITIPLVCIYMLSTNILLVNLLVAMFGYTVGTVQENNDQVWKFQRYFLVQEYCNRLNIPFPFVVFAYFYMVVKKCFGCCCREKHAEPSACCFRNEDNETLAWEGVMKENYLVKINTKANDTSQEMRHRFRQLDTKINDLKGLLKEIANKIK

[1] abbreviates: HEK293 cells stably expressing canine TRPM8, icilin activation, eight-point dose-response.
The mark [2] stands for this setting: compound at 0.2 μM, canine TRPM8, icilin activation.
The mark [3] stands for this setting: canine TRPM8, icilin activation.

pIC50: −log10 of the molar value. Where two headings read alike, the source gives them in different places.

Usually pIC50 stands for the IC50 on a negative log10 scale, so that one unit is a factor of ten.

As for `CS(=O)(=O)N(Cc1ccc(F)c(C(F)(F)F)c1)c1sc2ccccc2c1C=O` [Compound 208, N-(4-Fluoro-3-trifluoromethyl-benzyl)-N-(3-formyl-benzo[b]thiophen-2-yl)-methanesulfonamide], the pIC50 under setting [1] was 7.92. Besides, the inhibition at 0.2 µM under setting [2] was found to be 96%.

Regarding `O=S(=O)(c1ccccc1)N(CC1CCCCC1)c1sc2ccccc2c1Cl` [Compound 80, N-(3-Chloro-benzo[b]thiophen-2-yl)-N-(cyclohexylmethyl)-benzenesulfonamide], under setting [1], the negative logarithm of the IC50 (pIC50) is 7.54. For the same compound, under setting [3], the inhibition at 0.5 µM was determined as 98%.

With `CN(C)S(=O)(=O)N(CCOC(C)(C)C)c1sc2ccccc2c1Br` [Compound 267, N-(3-Bromo-benzo[b]thiophen-2-yl)-N-(2-tert-butoxy-ethyl)-N′,N′-dimethylsulfamide], under setting [1], the pIC50 was 8.00. Also, the inhibition at 0.2 µM under setting [2] worked out at 96%. Turning to `CCCCN(c1sc2ccccc2c1Br)S(=O)(=O)NC` [Compound 554, N-(3-Bromo-benzo[b]thiophen-2-yl)-N-(butyl)-N′-methyl-sulfamide], the inhibition at 0.2 µM under setting [2] was 52.3%.

Take `Cc1c(N(Cc2ccc(F)c(C(F)(F)F)c2)S(=O)(=O)c2ccc(C(=O)O)cc2)sc2cc(F)ccc12` [Compound 427, N-(6-Fluoro-3-methyl-benzo[b]thiophen-2-yl)-N-(4-fluoro-3-trifluoromethyl-benzyl)-4-carboxy-benzenesulfonamide]: the negative logarithm of the IC50 (pIC50) under setting [1] was 8.30. Moreover, the inhibition at 0.2 µM under setting [2] came to 95%. Consider `Cc1c(N(Cc2ccc(F)c(C(F)(F)F)c2)S(=O)(=O)c2nc3ccccc3[nH]2)sc2ccccc12` [Compound 728, N-(3-Methyl-benzo[b]thiophen-2-yl)-N-(4-fluoro-3-trifluoromethyl-benzyl)-1H-benzimidazole-2-sulfonamide], for which the inhibition at 0.2 µM under setting [2] was found to be 44%. Take `Cc1c(N(Cc2ccc(OC(F)(F)F)cc2)S(=O)(=O)c2ccc(-n3ccnc3CN(C)C)cc2)sc2ccccc12` [Compound 701, 4-(2-Dimethylaminomethyl-imidazol-1-yl)-N-(3-methyl-benzo[b]thiophen-2-yl)-N-(4-trifluoromethoxy-benzyl)-benzenesulfonamide]: the negative logarithm of the IC50 (pIC50) under setting [1] was 7.49. Also, under setting [2], the inhibition at 0.2 µM turned out to be 95%. As for `CN1CCN(C2=C(N(CCC3CC3)S(=O)(=O)c3ccccc3)S(=O)(=O)c3ccccc32)CC1` [Compound 645, N-(2-Cyclopropyl-ethyl)-N-[3-(4-methyl-piperazin-1-yl)-1,1-dioxo-1H-1λ^6-benzo[b]thiophen-2-yl]-benzenesulfonamide], the inhibition at 0.2 µM under setting [2] turned out to be 20%. As for `COc1cccc(S(=O)(=O)N(Cc2ccc(F)c(F)c2)c2sc3ccccc3c2C)c1` [Compound 25, N-(3,4-Difluoro-benzyl)-N-(3-methyl-benzo[b]thiophen-2-yl)-3-methoxy-benzenesulfonamide], under setting [1], the pIC50 is 7.68. Further, the inhibition at 0.5 µM under setting [3] is 99%.

`CC(=O)c1c(N(CCCF)S(=O)(=O)c2ccccc2)sc2ccccc12` [Compound 833, N-(3-Acetyl-benzo[b]thiophen-2-yl)-N-(3-fluoro-propyl)-benzenesulfonamide]: the inhibition at 0.2 µM (0.2 μM compound, HEK293 cells stably expressing canine TRPM8, icilin activation) was found to be 102%. In addition, under “HEK293 cells stably expressing canine TRPM8, icilin activation, average of two or more determinations”, the pIC50 was 7.89. `CCS(=O)(=O)N(CC1CC1)c1sc2ccccc2c1Br` [Compound 262, N-(3-Bromo-benzo[b]thiophen-2-yl)-N-(cyclopropylmethyl)-ethanesulfonamide]: the negative logarithm of the IC50 (pIC50) under setting [1] is 7.17. Further, under setting [2], the inhibition at 0.2 µM stood at 94%. For the compound `Cc1c(N(CCCCC(F)(F)F)S(=O)(=O)C(F)(F)F)sc2ccccc12` [Compound 662, C,C,C-Trifluoro-N-(3-methyl-benzo[b]thiophen-2-yl)-N-(5,5,5-trifluoro-pentyl)-methanesulfonamide], the inhibition at 0.2 µM under setting [2] was found to be 50.1%.

Take `CCS(=O)(=O)N(CC1CC1)c1sc2ccccc2c1C(C)O` (stereo not drawn) [Compound 281, N-(Cyclopropylmethyl)-N-(3-(1-hydroxyethyl)benzo[b]thiophen-2-yl)-ethanesulfonamide]: under setting [2], the inhibition at 0.2 µM is 62%.

The values above are taken from patent publication US9434711B2 (Janssen Pharmaceutica, NV, priority 2007, dated 2016).
